Data published in ChEMBL document CHEMBL1151280, “ent-Kaurane Diterpenoids from Isodon albopilosus” (J Nat Prod, 2005).

System: HepG2
Assay: Cytotoxicity against human HepG2 cells after 24 hrs by Alamar blue assay
Type: functional, cell-based
Conditions: for IC50: HepG2, 24 h

C=C1[C@H]2[C@@H](O)[C@@]3([C@H](O)C[C@H]4[C@@](C)(CCC[C@]4(C)C=O)[C@@H]3C[C@@H]2O)[C@@H]1OC(C)=O
Activity: Not toxic

C=C1C(=O)[C@@]23[C@H](O)C[C@H]4[C@@](C)(CCC[C@]4(C)C(=O)O)[C@@H]2CC[C@@H]1[C@H]3O
Activity: Not toxic

C=C1C(=O)[C@@]23[C@H](O)C[C@H]4[C@@](C)(CCC[C@]4(C)C=O)[C@@H]2C[C@H](O)[C@@H]1[C@H]3O [MACROCALYXIN C]
IC50: 30.8 µM

C=C1C(=O)[C@@]23[C@H](O)C[C@H]4[C@@](C)(CCC[C@]4(C)C=O)[C@@H]2CC[C@@H]1[C@H]3O [ALBOPILOSIN H]
IC50: 13.3 µM

C=C1C(=O)[C@@]23[C@H](O)C[C@H]4[C@@](C)(CCC[C@]4(C)C(=O)O)[C@@H]2C[C@H](O)[C@@H]1[C@H]3O
Activity: Not toxic

C[C@H]1C(=O)[C@@]23[C@H](O)C[C@H]4[C@@](C)(CCC[C@]4(C)C(=O)O)[C@@H]2C[C@H](O)[C@@H]1[C@H]3O
Activity: Not toxic

C[C@H]1C(=O)[C@@]23[C@H](O)C[C@@H]4[C@@](C)(CO[C@@H]5O[C@H](CO)[C@@H](O)[C@H](O)[C@H]5O)CCC[C@@]4(C)[C@@H]2C[C@H](O)[C@@H]1[C@H]3O
Activity: Not toxic

C=C1C(=O)[C@@]23[C@H](O)C[C@@H]4[C@@](C)(COC(C)=O)CCC[C@@]4(C)[C@@H]2C[C@H](O)[C@@H]1[C@H]3O [ALBOPILOSIN A]
IC50: 24.9 µM

C=C1[C@@H](OC(C)=O)[C@@]23[C@H](O)C[C@@H]4[C@@](C)(CO)CCC[C@@]4(C)[C@@H]2CC[C@@H]1[C@H]3O
Activity: Not toxic

C=C1C[C@@]23[C@H](O)C[C@@H]4[C@@](C)(CO)CCC[C@@]4(C)[C@@H]2C[C@H](O)[C@@H]1[C@H]3O
Activity: Not toxic

C=C1C(=O)[C@@]23[C@H](O)C[C@@H]4[C@@](C)(CO)CCC[C@@]4(C)[C@@H]2CC[C@@H]1[C@H]3O [EXCISANIN C]
IC50: 13.2 µM

C[C@@H]1[C@@H]2C(=O)C[C@H]3[C@]4(C)CCC[C@](C)(CO)[C@H]4C[C@@H](O)[C@@]3([C@@H]1O)[C@@H]2O
Activity: Not toxic

CC(=O)OC[C@@]1(C)CCC[C@]2(C)[C@@H]1C[C@@H](O)[C@@]13C(=O)[C@H](CO)[C@@H]([C@H]1O)[C@@H](O)C[C@@H]23
Activity: Not toxic

C=C1C(=O)[C@@]23[C@H](O)C[C@@H]4[C@@](C)(CO)CCC[C@@]4(C)[C@@H]2C[C@H](O)[C@@H]1[C@H]3O [RABDOKUNMIN C]
IC50: 42.1 µM

C=C1[C@H]2[C@@H](O)[C@@]3([C@H](O)C[C@@H]4[C@@](C)(CO)CCC[C@@]4(C)[C@@H]3C[C@@H]2O)[C@@H]1OC(C)=O
Activity: Not toxic
